According to patent US20060199856A1, “Novel compounds as anti-inflammatory, immunomodulatory and anti-proliferatory agents” (4 SC AG, priority 2001, published 2006):
Where two headings read alike, the source gives them in different places.

Tests used:
[1] = molecular target: T1, recombinant human DHODH (Homo sapiens, UniProt Q02127); assay: Inhibition assay of DHODH activity (human enzyme); format: biochemical
T1 construct: provided by Prof; M. Löffler, Marburg, Germany (gift, not purchased)
Procedure: (§1) The standard assay mixture contained 50 μM decyclo ubichinone, 100 μM dihydroorotate, 60 μM 2,6-dichloroindophenol, as well as 20 mU DHODH. The volume activity of the recombinant enzyme used was 30 U/ml. Measurements were conducted in 50 mM TrisHCl (150 mM KCl, 0,1% Triton X-100, pH. 8,0) at 30° C. in a final volume of 1 ml. The components were mixed, and the reaction was started by adding dihydroorotate. The course of reaction was followed by spectrophotometrically measuring the decrease in absorption at 600 nm for 2 min.
(§2) Inhibitory studies were conducted in a standard assay with additional variable amounts of inhibitor.
(§3) These investigations were carried out with recombinant human as well as with recombinant murine DHODH provided by Prof. M. Löffler, Marburg, Germany [M. Löffler, Chem. Biol. Interact.

[2] = molecular target: DHODH (Rattus norvegicus, UniProt Q63707); assay: Inhibition assay of DHODH activity (rat enzyme, head printed 'rate'); format: biochemical
Procedure: as §1, §2

[3] = molecular target: T2, recombinant murine DHODH (Mus musculus, UniProt O35435); assay: Inhibition assay of DHODH activity (murine enzyme); format: biochemical
T2 construct: provided by Prof; M. Löffler, Marburg, Germany (gift, not purchased)
Procedure: as §1, §2, §3

[4] = tested on: human lymphocyte cell proliferation; assay: Proliferation Assay of Human T-Cells; format: cell-based; conditions: 100 μM, activated human MNC, 48 hours
Procedure: Buffy coats of healthy donors were obtained from the local Red Cross; from these human mononuclear cells (MNC) were isolated using Accuspin™ System-Histopaque-1077 (Sigma) according to the protocol recommended by the manufacturer. Cells were seeded at densities of 5×10^4 or 1×10^5 cells per well in 96 well flat bottom plates in RPMI 1640 supplemented with 10% fetal calf serum, 2 mM L-glutamine and penicillin/streptomycin. Cells were activated with 1 μg/ml phytohaemagglutinin (PHA, Sigma) or 20 nM PMA (phorbol-12-myristate-13-acetate)/10 μM ionomycin (Calbiochem) and incubated with the test compounds in a final volume of 100 μl for 48 hours. Proliferation was measured using the CellTiter 96® Aqueous One Solution Cell Proliferation Assay (Promega) according to the lymphocyte assay protocol supplied by the manufacturer.

[5] = recombinant human DHODH, class symbols (in nM), read-out: human IC50-Value
[6] = class symbols (in nM), read-out: rate IC50-Value
[7] = recombinant human DHODH, numeric values, read-out: human IC50-Value

Sequence of DHODH (Q63707 whole entry): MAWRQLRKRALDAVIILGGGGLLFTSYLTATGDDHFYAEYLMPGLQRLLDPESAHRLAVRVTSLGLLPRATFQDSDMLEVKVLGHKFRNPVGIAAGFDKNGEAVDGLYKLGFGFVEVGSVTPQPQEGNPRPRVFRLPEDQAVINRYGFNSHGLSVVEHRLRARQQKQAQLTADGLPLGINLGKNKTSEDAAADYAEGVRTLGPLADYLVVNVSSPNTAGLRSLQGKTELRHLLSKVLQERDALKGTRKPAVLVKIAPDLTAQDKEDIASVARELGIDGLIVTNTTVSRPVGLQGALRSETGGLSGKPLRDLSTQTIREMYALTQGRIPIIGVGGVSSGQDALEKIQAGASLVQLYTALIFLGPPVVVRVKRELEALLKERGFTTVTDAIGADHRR
T2 sequence (O35435 whole entry): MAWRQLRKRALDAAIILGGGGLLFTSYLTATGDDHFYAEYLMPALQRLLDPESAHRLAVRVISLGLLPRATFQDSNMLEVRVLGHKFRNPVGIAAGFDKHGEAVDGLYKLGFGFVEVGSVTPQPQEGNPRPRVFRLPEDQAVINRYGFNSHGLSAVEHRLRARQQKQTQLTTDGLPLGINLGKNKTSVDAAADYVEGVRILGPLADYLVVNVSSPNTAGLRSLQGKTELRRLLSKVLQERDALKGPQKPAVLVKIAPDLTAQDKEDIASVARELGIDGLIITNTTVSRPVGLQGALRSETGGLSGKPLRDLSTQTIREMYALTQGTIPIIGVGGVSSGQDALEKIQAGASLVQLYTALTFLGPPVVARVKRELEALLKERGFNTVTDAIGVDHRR
T1 sequence (Q02127 whole entry): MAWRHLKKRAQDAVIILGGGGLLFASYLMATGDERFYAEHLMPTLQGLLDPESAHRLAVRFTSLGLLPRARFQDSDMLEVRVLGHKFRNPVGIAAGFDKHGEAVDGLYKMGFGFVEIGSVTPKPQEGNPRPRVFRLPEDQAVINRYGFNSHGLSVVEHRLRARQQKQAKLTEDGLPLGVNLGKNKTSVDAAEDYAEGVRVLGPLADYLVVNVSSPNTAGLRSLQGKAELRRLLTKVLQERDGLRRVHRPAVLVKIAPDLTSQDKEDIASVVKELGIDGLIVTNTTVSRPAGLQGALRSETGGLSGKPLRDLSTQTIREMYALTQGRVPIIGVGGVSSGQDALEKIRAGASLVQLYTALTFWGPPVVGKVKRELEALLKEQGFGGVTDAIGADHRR

| Structure (SMILES) | IC50 [1, 5] | IC50 [2, 6] | other results |
| --- | --- | --- | --- |
| CCOc1cccc(-c2cc(F)c(NC(=O)C3=C(C(=O)O)CCC3)c(F)c2)c1 [Compound 63] | < 800 nM | < 800 nM |  |
| O=C(O)C1=C(C(=O)Nc2ccc(OCc3ccccc3C(F)(F)F)c(Cl)c2)CCC1 [Compound 68] | < 800 nM | > 1500 nM |  |
| O=C(O)C1=C(C(=O)Nc2cc(Br)c(OCc3cc(F)ccc3F)c(Br)c2)CCC1 [Compound 24] | < 800 nM | > 1500 nM |  |
| COc1ccc(Nc2ccc(NC(=O)C3=C(C(=O)O)CCC3)cc2)cc1 [Compound 04] |  |  | murine IC50-Value ([3]; numeric values or words): weakly active; IC50 [1, 7]: 1000 nM |
| CCOc1cccc(-c2ccc(NC(=O)C3=C(C(=O)O)CCC3)c(F)c2)c1 [Compound 46] | < 800 nM | > 1500 nM |  |
| COc1ccccc1-c1cc(Cl)c(NC(=O)C2=C(C(=O)O)CCC2)c(Cl)c1 [Compound 58] | < 800 nM | 800 to 1500 nM |  |
| O=C(O)C1=C(C(=O)Nc2cccc(C(F)(F)F)c2)CCC1 [Compound 09] |  |  | IC50 ([3]; numeric values or words): 55000 nM; IC50 [1, 7]: 6800 nM |
| O=C(O)C1=C(C(=O)Nc2ccc3c(c2)S(=O)(=O)c2cc(NC(=O)C4=C(C(=O)O)CCC4)ccc2C3)CCC1 [Compound 05] |  |  | murine IC50-Value ([3]; numeric values or words): weakley active; IC50 [1, 7]: 1100 nM |
| Cc1cccc(Sc2ccc(NC(=O)C3=C(C(=O)O)CCC3)cc2)c1 [Compound 42] | < 800 nM | < 800 nM |  |
| COc1cccc(-c2ccc(NC(=O)C3=C(C(=O)O)CCC3)c(F)c2)c1 [Compound 26] |  |  | IC50 [2]: > 1500 nM |
| COc1ccccc1-c1c(F)c(F)c(NC(=O)C2=C(C(=O)O)CCC2)c(F)c1F [Compound 56] |  |  | IC50 [1]: < 800 nM; IC50 [2]: < 800 nM |
| CCOc1ccccc1-c1cc(F)c(NC(=O)C2=C(C(=O)O)CCC2)c(F)c1 [Compound 62] | < 800 nM | < 800 nM |  |
| COc1ccccc1-c1ccc(OC(=O)C2=C(C(=O)O)CCC2)c(F)c1 [Compound 76] | < 800 nM | < 800 nM | IC50 ([3]; class symbols (in nM)): 800 to 1500 nM |
| O=C(O)C1=C(C(=O)Nc2ccc(C(F)(F)F)cc2)CCC1 [Compound 08] |  |  | IC50 ([3]; numeric values or words): 930 nM; IC50 [1, 7]: 1600 nM |
| O=C(O)C1=C(C(=O)Nc2ccc(Oc3ccccc3)cc2)CCC1 [Compound 50] | < 800 nM | < 800 nM |  |
| O=C(O)C1=C(C(=O)Nc2ccc(-c3ccccc3F)cc2)CCC1 [Compound 13] | < 800 nM | > 1500 nM |  |
| O=C(O)C1=C(C(=O)Nc2ccc(-c3ccccc3)cc2)CCC1 [Compound 02, 2-(Biphenyl-4-ylcarbamoyl)-cyclopent-1-enecarboxylic acid] |  |  | reduction of human lymphocyte cell proliferation [4]: 40%; IC50 ([3]; numeric values or words): 4000 nM; IC50 [1]: 690 nM |

| Structure (SMILES) | IC50 [1, 5] | IC50 [2, 6] | other results |
| --- | --- | --- | --- |
| COc1ccccc1-c1ccc(NC(=O)C2=C(C(=O)O)CCC2)c(C)c1 [Compound 57] | < 800 nM | 800 to 1500 nM |  |
| O=C(O)C1=C(C(=O)Nc2ccc(OCc3ccccc3)cc2)CCC1 [Compound 01, 2-(4-Benzyloxy-phenylcarbamoyl)-cyclopent-l-enecarboxylic acid] |  |  | IC50 ([3]; numeric values or words): 8200 nM; IC50 [1, 7]: 350 nM |
| O=C(O)C1=C(C(=O)Nc2ccc(-c3ccccc3Cl)cc2)CSC1 [Compound 41] | < 800 nM | > 1500 nM |  |
| O=C(O)C1=C(C(=O)Nc2ccc(-c3ccccc3Cl)cc2)CCC1 [Compound 14] | < 800 nM | > 1500 nM |  |
| COc1ccccc1-c1ccc(NC(=O)C2=C(C(=O)O)CCC2)c(C(F)(F)F)c1 [Compound 55] | > 1500 nM |  |  |
| O=C(O)C1=C(C(=O)Nc2ccc(-c3cccc(F)c3)cc2F)CCC1 [Compound 27] | < 800 nM |  |  |
| COc1ccc(-c2ccc(NC(=O)C3=C(C(=O)O)CCC3)c(OC)c2)c(OC)c1 [Compound 37] | < 800 nM |  |  |
| O=C(O)C1=C(C(=O)Nc2c(F)cc(-c3ccccc3Cl)cc2F)CCC1 [Compound 65] | < 800 nM |  |  |
| COc1cc(-c2ccccc2Cl)ccc1NC(=O)C1=C(C(=O)O)CCC1 [Compound 34] | < 800 nM |  |  |
| O=C(O)C1=C(C(=O)Nc2ccc(-c3cccnc3)c(Cl)c2)CCC1 [Compound 28] | 800 to 1500 nM |  |  |
| O=C(O)C1=C(C(=O)Nc2ccc(OCc3c(F)cccc3F)cc2)CCC1 [Compound 16] | < 800 nM |  |  |
| COc1ccc(-c2ccc(NC(=O)C3=C(C(=O)O)CCC3)cc2Cl)cc1 [Compound 19] | < 800 nM | < 800 nM |  |
| COc1ccccc1-c1ccc(NC(=O)C2=C(C(=O)O)CCC2)cc1Cl [Compound 54] | < 800 nM | < 800 nM |  |
| CS(=O)(=O)c1ccc(-c2ccc(NC(=O)C3=C(C(=O)O)CCC3)cc2Cl)cc1 [Compound 20] | 800 to 1500 nM |  |  |
| O=C(O)C1=C(C(=O)Nc2cc(Br)c(OCc3ccccc3)c(Br)c2)CSC1 [Compound 29] |  |  | IC50 [1]: < 800 nM; IC50 [2]: 800 to 1500 nM |
| COc1cc(-c2ccccc2)ccc1NC(=O)C1=C(C(=O)O)CCC1 [Compound 33] | < 800 nM |  |  |
| COc1ccccc1-c1ccc(NC(=O)C2=C(C(=O)O)CCC2)c(Cl)c1 [Compound 53] | < 800 nM | 800 to 1500 nM |  |
